Molecules are shown by their SMILES.

In the experiment the target is T1, hSTING (Homo sapiens, UniProt Q86WV6, G230A/H232R/R293Q/R71H).
T1 construct: host or cells: THP1-Dual KO-IFNAR2 cells
T1 sequence (Q86WV6 whole entry R71H/G230A/H232R/R293Q): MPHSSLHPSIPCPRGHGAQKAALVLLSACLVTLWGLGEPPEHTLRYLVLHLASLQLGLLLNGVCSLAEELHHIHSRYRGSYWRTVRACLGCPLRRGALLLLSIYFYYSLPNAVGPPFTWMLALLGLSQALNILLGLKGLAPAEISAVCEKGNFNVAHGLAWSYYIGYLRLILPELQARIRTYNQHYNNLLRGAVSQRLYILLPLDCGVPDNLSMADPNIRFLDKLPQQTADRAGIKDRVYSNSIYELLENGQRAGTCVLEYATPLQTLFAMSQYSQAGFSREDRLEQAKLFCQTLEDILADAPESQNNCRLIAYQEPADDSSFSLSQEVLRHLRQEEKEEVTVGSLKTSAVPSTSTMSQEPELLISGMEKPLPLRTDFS
Kind of experiment: STING reporter assay (luciferase) in THP1-Dual KO-IFNAR2 cells stimulated with 2′3′cGAMP. Format: cell-based. Conditions: 15 μM 2′3′cGAMP transfected, 24 h, luciferase reporter activity. The protocol:
STING pathway activation by the compounds described herein was measured using THP1-Dual™ cells (KO-IFNAR2).
THP1-Dual™ KO-IFNAR2 Cells (obtained from invivogen) were maintained in RPMI, 10% FCS, 5 ml P/S, 2 mM L-glut, 10 mM Hepes, and 1 mM sodium pyruvate. Compounds were spotted in empty 384 well tissue culture plates (Greiner 781182) by Echo for a final concentration of 0.0017-100 μM. Cells were plated into the TC plates at 40 μL per well, 2×10E6 cells/mL. For activation with STING ligand, 2′3′cGAMP (MW 718.38, obtained from Invivogen), was prepared in Optimem media.
The following solutions were prepared for each 1×384 plate: • Solution A: 2 mL Optimem with one of the following stimuli: • 60 μL of 10 mM 2′3′cGAMP→150 μM stock • Solution B: 2 mL Optimem with 60 μL Lipofectamine 2000→Incubate 5 min at RT
2 mL of solution A and 2 ml Solution B was mixed and incubated for 20 min at room temperature (RT). 20 μL of transfection solution (A+B) was added on top of the plated cells, with a final 2′3′cGAMP concentration of 15 μM. The plates were then centrifuged immediately at 340 g for 1 minute, after which they were incubated at 37° C., 5% CO2, >98% humidity for 24 h. Luciferase reporter activity was then measured. EC50 values were calculated by using standard methods known in the art.
Luciferase reporter assay: 10 μL of supernatant from the assay was transferred to white 384-plate with flat bottom and squared wells. One pouch of QUANTI-Luc™ Plus was dissolved in 25 mL of water. 100 μL of QLC Stabilizer per 25 mL of QUANTI-Luc™ Plus solution was added. 50 μL of QUANTI-Luc™ Plus/QLC solution per well was then added. Luminescence was measured on a Platereader (e.g., Spectramax I3X (Molecular Devices GF3637001)).
Luciferase reporter activity was then measured. EC50 values were calculated by using standard methods known in the art.
For orientation: A reporter such as luciferase makes a cellular process visible.
As a reminder, the EC50 is the midpoint of the concentration-response curve. High values mean a less potent agent, low ones a more potent agent. Take `O=C(/C=C/c1ccc(OC(F)(F)F)cc1)Nc1c[nH]c2cc(F)c(F)cc12` [Compound 136, (E)-N-(5,6-difluoro-1H-indol-3-yl)-3-(4-(trifluoromethoxy)phenyl)acrylamide]: the concentration for a half-maximal effect (EC50) is 200 to 1000 nM.

`Cc1nnc(CC(=O)Nc2c[nH]c3ccc(-c4cnn(-c5ccc(C(F)(F)F)cc5)c4)cc23)o1` [Compound 138, 2-(5-methyl-1,3,4-oxadiazol-2-yl)-N-(5-(1-(4-(trifluoromethyl)phenyl)-1H-pyrazol-4-yl)-1H-indol-3-yl)acetamide] came in with an EC50 of 200 to 1000 nM.

Take `O=C(CCc1cnoc1)Nc1c[nH]c2ccc(-c3cnn(-c4ccc(C(F)(F)F)cc4)c3)cc12` [Compound 139, 3-(isoxazol-4-yl)-N-(5-(1-(4-(trifluoromethyl)phenyl)-1H-pyrazol-4-yl)-1H-indol-3-yl)propanamide]: the EC50 is 200 to 1000 nM.

For `O=C(CCc1cn[nH]c1)Nc1c[nH]c2ccc(-c3cnn(-c4ccc(C(F)(F)F)cc4)c3)cc12` [Compound 140, 3-(1H-pyrazol-4-yl)-N-(5-(1-(4-(trifluoromethyl)phenyl)-1H-pyrazo1-4-yl)-1H-indol-3-yl)propanamide], the 50% effective concentration (EC50) lay in the range of 200 to 1000 nM.

As to `O=C(Cc1nnn[nH]1)Nc1c[nH]c2ccc(-c3cnn(-c4ccc(C(F)(F)F)cc4)c3)cc12` [Compound 141, 2-(1H-tetrazol-5-yl)-N-(5-(1-(4-(trifluoromethyl)phenyl)-1H-pyrazol-4-yl)-1H-indol-3-yl)acetamide], the half-maximal effective concentration (EC50) was in the range of 5000 to 100000 nM.

With `O=C(CCn1ccnc1)Nc1c[nH]c2ccc(-c3cnn(-c4ccc(C(F)(F)F)cc4)c3)cc12` [Compound 142, 3-(1H-imidazol-1-yl)-N-(5-(1-(4-(trifluoromethyl)phenyl)-1H-pyrazol-4-yl)-1H-indol-3-yl)propanamide], the concentration giving a half-maximal response (EC50) lay in the range of 200 to 1000 nM.

As to `O=C(CCn1cccn1)Nc1c[nH]c2ccc(-c3cnn(-c4ccc(C(F)(F)F)cc4)c3)cc12` [Compound 143, 3-(1H-pyrazol-1-yl)-N-(5-(1-(4-(trifluoromethyl)phenyl)-1H-pyrazol-4-yl)-1H-indol-3-yl)propanamide], the concentration giving a half-maximal response (EC50) lay within 200 to 1000 nM.

In the case of `Cc1cc(CC(=O)Nc2c[nH]c3ccc(-c4cnn(-c5ccc(C(F)(F)F)cc5)c4)cc23)on1` [Compound 144, 2-(3-methylisoxazol-5-yl)-N-(5-(1-(4-(trifluoromethyl)phenyl)-1H-pyrazol-4-yl)-1H-indol-3-yl)acetamide], the concentration giving a half-maximal response (EC50) is 200 to 1000 nM.

`O=C(Cc1ncc(F)cn1)Nc1c[nH]c2ccc(-c3cnn(-c4ccc(C(F)(F)F)cc4)c3)cc12` [Compound 145, 2-(5-fluoropyrimidin-2-yl)-N-(5-(1-(4-(trifluoromethyl)phenyl)-1H-pyrazol-4-yl)-1H-indol-3-yl)acetamide] registered an EC50 of 200 to 1000 nM.

For `Cn1cc(CC(=O)Nc2c[nH]c3ccc(-c4cnn(-c5ccc(C(F)(F)F)cc5)c4)cc23)cn1` [Compound 146, 2-(1-methyl-1H-pyrazol-4-yl)-N-(5-(1-(4-(trifluoromethyl)phenyl)-1H-pyrazol-4-yl)-1H-indol-3-yl)acetamide], the EC50 lay in the range of 200 to 1000 nM.

The molecule `O=C(CCc1ncccn1)Nc1c[nH]c2ccc(-c3cnn(-c4ccc(C(F)(F)F)cc4)c3)cc12` [Compound 147, 3-(pyrimidin-2-yl)-N-(5-(1-(4-(trifluoromethyl)phenyl)-1H-pyrazol-4-yl)-1H-indol-3-yl)propanamide] had an EC50 of 200 to 1000 nM.

Take `O=C(CCc1nccs1)Nc1c[nH]c2ccc(-c3cnn(-c4ccc(C(F)(F)F)cc4)c3)cc12` [Compound 148, 3-(thiazol-2-yl)-N-(5-(1-(4-(trifluoromethyl)phenyl)-1H-pyrazol-4-yl)-1H-indol-3-yl)propanamide]: the concentration for a half-maximal effect (EC50) lay in the range of 200 to 1000 nM.

Molecule `O=C(Cc1ncc[nH]1)Nc1c[nH]c2ccc(-c3cnn(-c4ccc(C(F)(F)F)cc4)c3)cc12` [Compound 149, 2-(1H-imidazol-2-yl)-N-(5(1-(4-(trifluoromethyl)phenyl)-1H-pyrazol-4-yl)-1H-indol-3-yl)acetamide] yielded a 50% effective concentration (EC50) of 5000 to 100000 nM.

For `Cc1nc(CC(=O)Nc2c[nH]c3ccc(-c4cnn(-c5ccc(C(F)(F)F)cc5)c4)cc23)n[nH]1` [Compound 150, 2-(5-methyl-1H-1,2,4-triazol-3-yl)-N-(5-(1-(4-(trifluoromethyl)phenyl)-1H-pyrazol-4-yl)-1H-indol-3-yl)acetamide], the EC50 is 1000 to 5000 nM.

The molecule `NC1(CC(=O)Nc2c[nH]c3ccc(-c4cnn(-c5ccc(C(F)(F)F)cc5)c4)cc23)CCCCC1` [Compound 151, 2-(1-aminocyclohexyl)-N-(5-(1-(4-(trifluoromethyl)phenyl)-1H-pyrazol-4-yl)-1H-indol-3-yl)acetamide] registered a 50% effective concentration (EC50) of 1000 to 5000 nM.

On to `O=C(Nc1c[nH]c2ccc(-c3cnn(-c4ccc(C(F)(F)F)cc4)c3)cc12)[C@@H](O)C1CCCCC1` [Compound 152, (S)-2-cyclohexyl-2-hydroxy-N-(5-(1-(4-(trifluoromethyl)phenyl)-1H-pyrazol-4-yl)-1H-indol-3-yl)acetamide], for which the EC50 lay within 1000 to 5000 nM.

`Cn1cnnc1CCC(=O)Nc1c[nH]c2ccc(-c3cnn(-c4ccc(C(F)(F)F)cc4)c3)cc12` [Compound 153, 3-(4-methyl-4H-1,2,4-triazol-3-yl)-N-(5-(1-(4-(trifluoromethyl)phenyl)-1H-pyrazol-4-yl)-1H-indol-3-yl)propanamide] came in with an EC50 of 1000 to 5000 nM.

`O=C(Nc1c[nH]c2ccc(-c3cnn(-c4ccc(C(F)(F)F)cc4)c3)cc12)C(O)c1ccccc1` (stereo not shown) [Compound 154, 2-hydroxy-2-phenyl-N-(5-(1-(4-(trifluoromethyl)phenyl)-1H-pyrazol-4-yl)-1H-indol-3-yl)acetamide] yielded a concentration giving a half-maximal response (EC50) of 1000 to 5000 nM.

`O=C(CCN1CCCC1=O)Nc1c[nH]c2ccc(-c3cnn(-c4ccc(C(F)(F)F)cc4)c3)cc12` [Compound 155, 3-(2-oxopyrrolidin-1-yl)-N-(5-(1-(4-(trifluoromethyl)phenyl)-1H-pyrazol-4-yl)-1H-indol-3-yl)propanamide] registered an EC50 of 200 to 1000 nM.

In turn, `C[C@H](C(=O)Nc1c[nH]c2ccc(-c3cnn(-c4ccc(C(F)(F)F)cc4)c3)cc12)N1CCCC1=O` [Compound 156, (R)-2-(2-oxopyrrolidin-1-yl)-N-(5-(1-(4-(trifluoromethyl)phenyl)-1H-pyrazol-4-yl)-1H-indol-3-yl)propanamide] displayed an EC50 of 1000 to 5000 nM.

`O=C(CC1CC(F)(F)C1)Nc1c[nH]c2ccc(-c3cnn(-c4ccc(C(F)(F)F)cc4)c3)cc12` [Compound 157, 2-(3,3-difluorocyclobutyl)-N-(5-(1-(4-(trifluoromethyl)phenyl)-1H-pyrazol-4-yl)-1H-indol-3-yl)acetamide] showed a 50% effective concentration (EC50) of 200 to 1000 nM.

As to `O=C(CS(=O)(=O)C1CC1)Nc1c[nH]c2ccc(-c3cnn(-c4ccc(C(F)(F)F)cc4)c3)cc12` [Compound 158, 2-(cyclopropylsulfonyl)-N-(5-(1-(4-(trifluoromethyl)phenyl)-1H-pyrazol-4-yl)-1H-indol-3-yl)acetamide], the 50% effective concentration (EC50) is 200 to 1000 nM.

With `O=C(CCn1cncn1)Nc1c[nH]c2ccc(-c3cnn(-c4ccc(C(F)(F)F)cc4)c3)cc12` [Compound 159, 3-(1H-1,2,4-triazol-1-yl)-N-(5-(1-(4-(trifluoromethyl)phenyl)-1H-pyrazol-4-yl)-1H-indol-3-yl)propanamide], the concentration giving a half-maximal response (EC50) lay within 200 to 1000 nM.

`Cc1noc(C)c1CC(=O)Nc1c[nH]c2ccc(-c3cnn(-c4ccc(C(F)(F)F)cc4)c3)cc12` [Compound 160, 2-(3,5-dimethylisoxazol-4-yl)-N-(5-(1-(4-(trifluoromethyl)phenyl)-1H-pyrazol-4-yl)-1H-indol-3-yl)acetamide] had a concentration giving a half-maximal response (EC50) of 1000 to 5000 nM.

In turn, `O=C(CN1CCOC1=O)Nc1c[nH]c2ccc(-c3cnn(-c4ccc(C(F)(F)F)cc4)c3)cc12` [Compound 161, 2-(2-oxooxazolidin-3-yl)-N-(5-(1-(4-(trifluoromethyl)phenyl)-1H-pyrazol-4-yl)-1H-indol-3-yl)acetamide] had a 50% effective concentration (EC50) of 200 to 1000 nM.

Turning to `O=C(CC1(O)CCC1)Nc1c[nH]c2ccc(-c3cnn(-c4ccc(C(F)(F)F)cc4)c3)cc12` [Compound 162, 2-(1-hydroxycyclobutyl)-N-(5-(1-(4-(trifluoromethyl)phenyl)-1H-pyrazol-4-yl)-1H-indol-3yl)acetamide], the half-maximal effective concentration (EC50) lay in the range of 200 to 1000 nM.

As for `COC1(CC(=O)Nc2c[nH]c3ccc(-c4cnn(-c5ccc(C(F)(F)F)cc5)c4)cc23)CCC1` [Compound 163, 2-(1-methoxycyclobutyl)-N-(5-(1-(4-(trifluoromethyl)phenyl)-1H-pyrazol-4-yl)-1H-indol-3-yl)acetamide], the EC50 was in the range of 200 to 1000 nM.

With `O=C(Cn1cncn1)Nc1c[nH]c2ccc(-c3cnn(-c4ccc(C(F)(F)F)cc4)c3)cc12` [Compound 164, 2-(1H-1,2,4-triazol-1-yl)-N-(5-(1-(4-(trifluoromethyl)phenyl)-1H-pyrazol-4-yl)-1H-indol-3yl)acetamide], the EC50 fell in the range of 1000 to 5000 nM.

Source of the values: patent US20220024906A1, “COMPOUNDS AND COMPOSITIONS FOR TREATING CONDITIONS ASSOCIATED WITH STING ACTIVITY” (IFM Due, Inc., priority 2020, published 2022).
